Columns and labels:
[1] = Optical properties in methanol; type: physicochemical
Description: The optical properties (in methanol) of compounds 2 to 4 synthesized were determined (Table 1). The compounds 2 to 4 each have maximum absorption at a wavelength at or near 500 nm and emit fluorescence at 509 nm. It was observed that introduction of a perfluoroalkyl group caused some decreases in light absorption coefficients, but little change in their fluorescence quantum yield.

Aβ1-42 [2] = biological target: T1, Aβ1-42 (Homo sapiens, UniProt P05067); assay: Aβ peptide selectivity test: oxygenation of Aβ1-42; type: biochemical; conditions: 20 μM, pH 7.4, pre-incubated 3 hours, 37° C., 30 min, LED 595 nm, FIG. 9
Description: (§1) Compound 14 was used to investigate whether or not a compound of the present invention was able to selectively oxygenate Aβ. First, compound 14 (20 μM) was added to phosphate buffer solutions (pH 7.4) each containing Aβ1-42 (20 μM), angiotensin IV (20 μM) or a methionine enkephalin (20 μM), which solutions had been pre-incubated for 3 hours. The mixtures were incubated at 37° C. for 30 min under LED light irradiation (at a wavelength of 595 nm). Then, a mass spectrometer (MALDI-TOF MS) was used to follow the reaction. Three model peptides having a residue capable of being oxygenated were selected, including angiotensin IV (AT-4), met-enkephalin (ME), and somatostatin (Sat). These three peptides were subjected to the same oxygenation conditions as for Aβ1-42 (FIG. 9).

[3] = tested on: angiotensin IV (AT-4), met-enkephalin (ME), and somatostatin (Sat); assay: Aβ peptide selectivity test: oxygenation of non-amyloid model peptides; type: biochemical; conditions: same oxygenation conditions as for Aβ1-42, FIG. 9
Description: as §1

[4] = Absorption spectrum measurement (Test Example 3); type: physicochemical; conditions: for shift of maximum absorption wavelength to the long-wavelength side: 8 vs compound 9, 11 vs F on boron, 12 with R^6 iodine; for Absorbance λmax: Table 2
Description: Each absorption spectrum was measured (Table 2). The maximum absorption wavelength of compound 8, in which the dimethylamino phenyl group of compound 9 was changed to a julolidine group, was shifted to the long-wavelength side by 30 nm than that of compound 9. […] The maximum absorption wavelength of compound 12, in which R^6 was iodine, was shifted to the long-wavelength side by 20 nm. This allowed the compound to be efficiently excited by light with a longer wavelength of over 650 nm. In the cases of the carboxyl group- or sulfonic acid group-substituted tetrahydroquinoline derivatives (compounds 13 to 16) so as to introduce a water-soluble substituent, the absorption wavelength was shifted to the short-wavelength side by about 10 nm than that of the julolidine-substituted derivative. It can be deduced from the above results that as the lone electron pair of the nitrogen atom is arranged more stably on the same plane as that of the benzene ring due to the condensed ring structure of the julolidine or tetrahydroquinoline, the absorption wavelength tends to be shifted more to the long-wavelength side.

Aβ1-42 [5] = biological target: T1, Aβ1-42; assay: In vitro Aβ1-42 oxygenation in phosphate buffer under 595 nm light, MALDI-TOF MS; type: biochemical; conditions: for Aβ1-42 oxygenation activity / rate of oxygenation of Aβ1-42: phosphate buffer pH 7.4, 37° C., light at 595 nm, FIG. 5
Description: (1) To check whether or not the compounds synthesized actually had Aβ oxygenation activity, in vitro oxygenation experiments were carried out using Aβ1-42 as a substrate. Compound 12 (20 μM) was added to a phosphate buffer solution (pH 7.4) containing Aβ1-42 (20 μM), and the mixture was incubated at 37° C. under LED light irradiation (at a wavelength of 595 nm). Then, a mass spectrometer (MALDI-TOF MS) was used to follow the reaction. Before the light irradiation, native Aβ1-42 and Na^+ adducts were primarily observed. […] (2) The Aβ1-42 oxygenation activities of compounds 8, 11, and 12 were compared (FIG. 5). First, 0.1% TFA aqueous solution containing o-acyliso-Aβ1-42 was diluted with a phosphate buffer solution (PB) (10 mM, pH 7.4) to prepare a native Aβ1-42 solution. To the resulting solution was added a DMSO catalyst stock solution (1.0 M). While incubated at 37° C., the mixture was irradiated with light at 595 nm. […] The heavy metal effect seems to enhance the efficiency of generating singlet oxygen.

[6] = Photostability under light irradiation (500 nm, methanol); type: physicochemical; conditions: methanol solution, light of 500 nm, 37° C., FIG. 2
Description: Next, a methanol solution containing each of compounds 2 to 4 was irradiated with light of 500 nm, and incubated at 37° C. Then, a change in the time course of the absorbance at the maximum light absorption wavelength was measured to compare their photostability (FIG. 2). […] By contrast, compounds 3 and 4, having a perfluoroalkyl group, took 2 hours or longer until complete photofading. […] Reaction with singlet oxygen seems to be primarily responsible for the photofading under visible light irradiation. So, the photostability of the present compounds was considered from the viewpoint of the reactivity with singlet oxygen. First, the HOMO/LUMO levels of compounds 2 to 4 were calculated in accordance with a DFT algorithm (FIG. 3). […] As the HOMO level increases, the compounds are more susceptible to oxygenation by singlet oxygen. Thus, this calculation results agree with the results of the photostability test. […] This reflects the fact that the maximum absorption wavelength is unchanged.

T1 sequence (P05067 672-713 limits assumed): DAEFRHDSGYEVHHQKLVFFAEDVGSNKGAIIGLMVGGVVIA

SMILES | Absorbance λmax [1] | Emission λmax [1] | Φfl (fluorescence quantum yield) [1] | ϵ (light absorption coefficient) [1] | shift of maximum absorption wavelength to the long-wavelength side [4] | Absorbance λmax [4] | Aβ1-42 oxygenation activity (Aβ1-42 [5]) | other results
CC1=CC(C)=[N+]2C1=Cc1c(C)cc(C)n1[B-]2(F)C(F)(F)F (stereo not drawn) [Compound 3] | 502 nm | 509 nm | 0.80 | 74000 M⁻¹ cm⁻¹ |  |  |  | 
Cc1cc2nc3c(=O)[nH]c(=O)nc-3n(C[C@H](O)[C@H](O)[C@H](O)CO)c2cc1C [riboflavin] |  |  |  |  |  |  |  | oxygenation activity toward Aβ1-42 (Aβ1-42 [2]): a certain oxygenation activity on all the peptides; oxygenation of the other (non-amyloid) peptides [3]: a certain oxygenation activity on all the peptides
CC1=CC(C)=[N+]2C1=Cc1c(C)cc(/C=C/c3cc4c5c(c3)CCCN5CCC4)n1[B-]2(F)F [Compound 8] |  |  |  |  | 30 nm | 639 nm | helped oxygenate Aβ1-42 under the light irradiation | 
CC1=C(I)C(C)=[N+]2C1=Cc1c(C)cc(/C=C/c3cc4c5c(c3)CCCN5CCC4)n1[B-]2(F)C(F)(F)F (stereo not drawn) [Compound 12] |  |  |  |  | 20 nm | 660 nm | helped oxygenate Aβ1-42 under the light irradiation | Aβ1-42 oxygenation (oxygen adducts by MALDI-TOF MS) (Aβ1-42 [5]; compound 20 μM, Aβ1-42 20 μM, pH 7.4, 37° C., LED 595 nm, FIG. 4): there appeared ion peaks indicating the presence of oxygen adducts in a time-dependent manner; rate of oxygenation of Aβ1-42 (Aβ1-42 [5]): significantly faster
CC1=CC(C)=[N+]2C1=Cc1c(C)cc(C)n1[B-]2(F)C(F)(F)C(F)(F)F (stereo not drawn) [Compound 4] | 503 nm | 509 nm | 0.79 | 72600 M⁻¹ cm⁻¹ |  |  |  | 

Further lines, with some results ahead:

Absorbance λmax [1] | Emission λmax [1] | Φfl (fluorescence quantum yield) [1] | ϵ (light absorption coefficient) [1] | shift of maximum absorption wavelength to the long-wavelength side [4] | Absorbance λmax [4] | SMILES | Aβ1-42 oxygenation activity (Aβ1-42 [5]) | other results
 |  |  |  | almost no observable change | 640 nm | CC1=CC(C)=[N+]2C1=Cc1c(C)cc(/C=C/c3cc4c5c(c3)CCCN5CCC4)n1[B-]2(F)C(F)(F)F (stereo not drawn) [Compound 11] | helped oxygenate Aβ1-42 under the light irradiation | rate of oxygenation of Aβ1-42 (Aβ1-42 [5]): faster oxygenation rate than the compounds 8
502 nm | 509 nm | 0.80 | 81400 M⁻¹ cm⁻¹ |  |  | CC1=CC(C)=[N+]2C1=Cc1c(C)cc(C)n1[B-]2(F)F [Compound 2, reference compound] |  | time to substantial photofading [6]: about 30 min

Reference: patent US10188671B2, “Boron-dipyrrin complex and medicament containing the same” (JAPAN SCIENCE AND TECHNOLOGY AGENCY, priority 2015, dated 2019)
